Results on five molecules are retold here after patent US12624007B2, “Naphthalimide sulfonate derivative, and photoacid generator and photoresist composition which comprise same” (SAMYANG CORPORATION, priority 2020, dated 2026).

A short description of data set [1]: Thermal stability by thermogravimetric analyzer (5% weight loss temperature). Format: physicochemical. The text has this:
Measurement of Thermal Stability
If a photoacid generator is thermally stable in a photoresist preparation process, a very good effect in terms of stability can be expected.

A short description of data set [2]: Measurement of solubility of photoacid generators in photoresist solvents. Particulars: for Solubility PGMEA: solvent PGMEA; for Solubility Cyclohexane: solvent cyclohexane.

In the case of `O=C1c2cccc3cccc(c23)C(=O)N1OS(=O)(=O)C(F)(F)F` [Formula V, reference compound], the “Temperature at which 5% weight loss occurred” value in data set [1] is 223 °C.
Consider `O=C1c2cccc3c(CC4CCCCC4)ccc(c23)C(=O)N1OS(=O)(=O)C(F)(F)F` [Compound 5], for which, in data set [1], the “Temperature at which 5% weight loss occurred” value stood at 252 °C. For the same molecule, in data set [2], the “Solubility PGMEA” value was 3.1 w/v; % and the “Solubility Cyclohexane” value is recorded as 7.8 w/v; %.
In the case of `O=C1c2cccc3c(CC4CC4)ccc(c23)C(=O)N1OS(=O)(=O)C(F)(F)F` [Compound 1, 4-cyclopropanemethyl-naphthalimide trifluoromethane sulfonate], the “Temperature at which 5% weight loss occurred” value in data set [1] was 242 °C. In data set [2], the “Solubility PGMEA” value was 9.2 w/v; % and the “Solubility Cyclohexane” value is given as 26.1 w/v; %.
The corresponding values for `O=C1c2cccc3c(CCCC4CCCC4)ccc(c23)C(=O)N1OS(=O)(=O)C(F)(F)F` [Compound 9] are 258 °C, 6.3 w/v; % and 21.3 w/v; %.
Take `CC(C)(C)c1cc2c3c(ccc(CC4CCCCC4)c3c1)C(=O)N(OS(=O)(=O)C(F)(F)F)C2=O` [Compound 19]: the “Temperature at which 5% weight loss occurred” value in data set [1] is 236 °C. Further, in data set [2], the “Solubility PGMEA” value was 11.0 w/v; % and the “Solubility Cyclohexane” value is recorded as 31.2 w/v; %.
